Laboratory results reported in publication PMC8600648 (ACS Omega, 2021).

Biological target: TMV-CP (tobacco mosaic virus coat protein) (Tobacco mosaic virus (vulgare), UniProt P69687)
Experiment: microscale thermophoresis
Assay type: binding

Chain of TMV-CP (tobacco mosaic virus coat protein) (P69687 2-159 limits assumed): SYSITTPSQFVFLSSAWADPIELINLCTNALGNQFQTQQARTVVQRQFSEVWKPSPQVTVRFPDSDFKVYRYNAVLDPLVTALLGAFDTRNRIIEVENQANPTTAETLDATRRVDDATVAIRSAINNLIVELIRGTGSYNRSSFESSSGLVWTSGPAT

O=c1c(O)c(-c2cc(O)c(O)c(O)c2)oc2cc(O)cc(O)c12 [myricetin, 3,5,7-trihydroxy-2-(3′,4′,5′-trihydroxyphenyl)-4H-chromen-4-one] was tested. Which Kd did it give?
Its Kd is 62.2 ± 22.2 µM.
